Test results published in patent US20260013504A1, “HERBICIDAL MIXTURE, HERBICIDAL COMPOSITION, METHOD, USE, AND KITS FOR CONTROLLING UNDESIRABLE VEGETATION” (ADAMA AGAN LTD., priority 2022, published 2026).

Assays:
Format in all cases: in vivo
Aegilops tauschii = experiment: Pot experiment, soil treatment, control of Aegilops tauschii (fresh weight, Colby); conditions: mixtures: both AIs at these rates, after 35 days
Text: (§1) Referring to an article of Colby, S. R. i.e., Calculation of the synergistic and antagonistic response of herbicide combinations.
E0 is the theoretical fresh weight survival rate for the mixture of pyroxasulfone and the second herbicide selected from the group consisting of fluorochloridone, aclonifen, diflufenican and terbutryn;
X is the measured fresh weight survival rate for pyroxasulfone used alone at the same dosage as that in the mixture;
Y is the measured fresh weight survival rate for the second herbicide selected from the group consisting of fluorochloridone, aclonifen, diflufenican and terbutryn used alone at the same dosage as that in the mixture;
E is the measured fresh weight survival rate for the mixture of pyroxasulfone and the second herbicide selected from the group consisting of fluorochloridone, aclonifen, diflufenican and terbutryn.
(§2) E0-E value is calculated to evaluate the combined effect of pyroxasulfone and the second herbicide selected from the group consisting of fluorochloridone, aclonifen, diflufenican and terbutryn on the selected weeds.
(§3) In this Example, the herbicidal activity of treatments by a mixture of pyroxasulfone and the second herbicide selected from the group consisting of fluorochloridone, aclonifen, diflufenican and terbutryn for controlling Aegilops tauschii was investigated by a pot experiment. This Example was carried out in accordance with “NY/T 1155.4-2006 Guidelines for Indoor Bioassay Tests of Pesticides, Herbicides Part 4: Activity Determination Tests, Stem and Leaf Spray Method”. • Source of the agrochemicals tested were: • Pyroxasulfone: pyroxasulfone (850g/Kg, WG) from Adama Agan LTD. • Fluorochloridone: fluorochloridone (250 g/L, EC) from Adama Agan LTD. • Aclonifen: aclonifen (600 g/L, SC) from Adama Agan LTD. • Diflufenican: diflufenican (50g/Kg, WP) from Bayer. • Terbutryn: terbutryn (50g/Kg, SC) from Zhejiang Zhongshan Chemical Industry Group Co., Ltd. • Cultivation of test materials: The test soil was formed by mixing the 20 cm layer loam on the ground surface and the culture medium in a ratio of 3:1 as cultivation soil. Weeds were cultivated in an artificial climate chamber. The daytime and nighttime temperatures were set at 22° C. and 19° C., respectively, and the illumination was set at daytime: dark time 12h: 12h.
(§4) A certain amount of Aegilops tauschii seeds were sown in a plastic pot with a diameter of 9 cm, covering with 1-2 mm soil, and putting them in an enamel dish filled with water. The bottom infiltration method was used to water them, the agrochemicals tested in this Example were applied on the second day after sowing Aegilops tauschii seeds.
(§5) Spraying treatment: ASS-4 automatic control spraying system with a fan-shaped nozzle was used indoors to spray the agrochemicals, the running speed was adjusted based on nozzle pressure, flow rate, etc. to spray 50 mL of liquid of agrochemicals on the actual spray area of 1.1 m2 (equivalent to 30 liters per mu), arranging the plastic pots to be processed on the spraying table evenly, and spraying evenly. The spraying pressure was 0.35 MPa, and the flow rate of the fan-shaped nozzle was 800 mL/min, spraying in order from low dosage to high dosage. Each treatment was repeated 3 times. After spraying, the plastic pots were dried for one day, placed in an artificial climate chamber, and watered regularly to keep moist.
(§6) Weed investigation method and time: after applying the agrochemicals, the symptoms of weed damage (such as growth inhibition, chlorosis, deformity, etc.) were recorded in detail. After 35 days, the fresh weight of aerial part of the weeds in each treatment was weighed, and the measured fresh weight inhibition rate and the measured fresh weight survival rate for each treatment were calculated according to the following equations: […]

Galium aparine = experiment: Pot experiment, soil treatment, control of Galium aparine (fresh weight, Colby)
Procedure: as §1, §2, §3, §4, §5, §6
Example 4 was conducted substantially the same way as Example 1, except that Galium aparine was used instead of Aegilops tauschii.

Solanum nigrum = experiment: Pot experiment (glass greenhouse), soil treatment, control of Solanum nigrum (fresh weight, Colby)
Procedure: as §1, §2, §3, §4, §5, §6
Example 6 was substantially conducted in the same as Example 1, except that (1) Solanum nigrum was used instead of Aegilops tauschii, (2) in “Cultivation of test materials” part, Solanum nigrum was cultivated in a glass greenhouse instead of an artificial climate chamber at a temperature of 25 to 33° C. with a natural illumination, and (3) in “Spraying treatment” part, after spraying and drying, the plastic pots were placed in a glass greenhouse instead of an artificial climate chamber.

Bromus japonicus = experiment: Pot experiment, soil treatment, control of Bromus japonicus (fresh weight, Colby); conditions: mixtures: both AIs at these rates, after 35 days
Procedure: as §1, §2, §3, §4, §5, §6
Example 3 was conducted in substantially the same way as Example 1, except that Bromus japonicus was used instead of Aegilops tauschii.

Lolium multiflorum Lamk = experiment: Pot experiment, soil treatment, control of Lolium multiflorum Lamk (fresh weight, Colby); conditions: mixtures: both AIs at these rates, after 35 days
Procedure: as §1, §2, §3, §4, §5, §6
Example 2 was conducted in substantially the same way as Example 1, except that Lolium multiflorum Lamk was used instead of Aegilops tauschii.

Lithospermum arvense = experiment: Pot experiment, soil treatment, control of Lithospermum arvense (fresh weight, Colby)
Procedure: as §1, §2, §3, §4, §5, §6
Example 5 was conducted substantially the same way as Example 1, except that Lithospermum arvense was used instead of Aegilops tauschii.

[1] = g ai/ha: pyroxasulfone 11.25, fluorochloridone 31.25, aclonifen 150, diflufenican 14.0625, terbutryn 140.625
[2] = g ai/ha: pyroxasulfone 22.5, fluorochloridone 62.5, aclonifen 300, diflufenican 28.125, terbutryn 281.25
[3] = g ai/ha: pyroxasulfone 45, fluorochloridone 125, aclonifen 600, diflufenican 56.25, terbutryn 562.5
[4] = g ai/ha: pyroxasulfone 90, fluorochloridone 250, aclonifen 1200, diflufenican 112.5, terbutryn 1125
[5] = g ai/ha: pyroxasulfone 180, fluorochloridone 500, aclonifen 2400, diflufenican 225, terbutryn 2250
[6] = g ai/ha: pyroxasulfone 360, fluorochloridone 1000, aclonifen 4800, diflufenican 450, terbutryn 4500

3-chloro-4-(chloromethyl)-1-(3-(trifluoromethyl)phenyl)-2-pyrrolidione [fluorochloridone]
Measured fresh weight inhibition rate (%) (Aegilops tauschii; [1]): 0.0% | Measured fresh weight survival rate (%) - E (Aegilops tauschii; [1]): 100.0% | Measured fresh weight inhibition rate (%) (Aegilops tauschii; [2]): 7.9% | Measured fresh weight survival rate (%) - E (Aegilops tauschii; [2]): 92.1% | Measured fresh weight inhibition rate (%) (Aegilops tauschii; [3]): 11.0% | Measured fresh weight survival rate (%) - E (Aegilops tauschii; [3]): 89.0% | Measured fresh weight inhibition rate (%) (Aegilops tauschii; [4]): 49.4% | Measured fresh weight survival rate (%) - E (Aegilops tauschii; [4]): 50.6% | Measured fresh weight inhibition rate (%) (Aegilops tauschii; [5]): 79.3% | Measured fresh weight survival rate (%) - E (Aegilops tauschii; [5]): 20.7% | Measured fresh weight inhibition rate (%) (Aegilops tauschii; [6]): 93.9% | Measured fresh weight survival rate (%) - E (Aegilops tauschii; [6]): 6.1% | Measured fresh weight inhibition rate (%) (Galium aparine; 31.25 g ai/ha): 63.0% | Measured fresh weight survival rate (%) - E (Galium aparine; 31.25 g ai/ha): 37.0% | Measured fresh weight inhibition rate (%) (Galium aparine; 62.5 g ai/ha): 84.9% | Measured fresh weight survival rate (%) - E (Galium aparine; 62.5 g ai/ha): 15.1% | Measured fresh weight inhibition rate (%) (Galium aparine; 125 g ai/ha): 93.2% | Measured fresh weight survival rate (%) - E (Galium aparine; 125 g ai/ha): 6.8% | Measured fresh weight inhibition rate (%) (Galium aparine; 250 g ai/ha): 95.9% | Measured fresh weight survival rate (%) - E (Galium aparine; 250 g ai/ha): 4.1% | Measured fresh weight inhibition rate (%) (Galium aparine; 500 g ai/ha): 100.0% | Measured fresh weight survival rate (%) - E (Galium aparine; 500 g ai/ha): 0.0% | Measured fresh weight inhibition rate (%) (Solanum nigrum; 31.25 g ai/ha): 18.8% | Measured fresh weight survival rate (%) - E (Solanum nigrum; 31.25 g ai/ha): 81.2% | Measured fresh weight inhibition rate (%) (Solanum nigrum; 62.5 g ai/ha): 32.5% | Measured fresh weight survival rate (%) - E (Solanum nigrum; 62.5 g ai/ha): 67.5% | Measured fresh weight inhibition rate (%) (Solanum nigrum; 125 g ai/ha): 67.1% | Measured fresh weight survival rate (%) - E (Solanum nigrum; 125 g ai/ha): 32.9% | Measured fresh weight inhibition rate (%) (Solanum nigrum; 250 g ai/ha): 99.6% | Measured fresh weight survival rate (%) - E (Solanum nigrum; 250 g ai/ha): 0.4% | Measured fresh weight inhibition rate (%) (Solanum nigrum; 500 g ai/ha): 100.0% | Measured fresh weight survival rate (%) - E (Solanum nigrum; 500 g ai/ha): 0.0% | Measured fresh weight inhibition rate (%) (Bromus japonicus; [1]): 94.8% | Measured fresh weight survival rate (%) - E (Bromus japonicus; [1]): 5.2% | Measured fresh weight inhibition rate (%) (Bromus japonicus; [2]): 96.9% | Measured fresh weight survival rate (%) - E (Bromus japonicus; [2]): 3.1% | Measured fresh weight inhibition rate (%) (Bromus japonicus; [3]): 100.0% | Measured fresh weight survival rate (%) - E (Bromus japonicus; [3]): 0.0% | Measured fresh weight inhibition rate (%) (Bromus japonicus; [4]): 100.0% | Measured fresh weight survival rate (%) - E (Bromus japonicus; [4]): 0.0% | Measured fresh weight inhibition rate (%) (Bromus japonicus; [5]): 100.0% | Measured fresh weight survival rate (%) - E (Bromus japonicus; [5]): 0.0% | Measured fresh weight inhibition rate (%) (Lolium multiflorum Lamk; [1]): 93.2% | Measured fresh weight survival rate (%) - E (Lolium multiflorum Lamk; [1]): 6.8% | Measured fresh weight inhibition rate (%) (Lolium multiflorum Lamk; [2]): 96.4% | Measured fresh weight survival rate (%) - E (Lolium multiflorum Lamk; [2]): 3.6% | Measured fresh weight inhibition rate (%) (Lolium multiflorum Lamk; [3]): 98.4% | Measured fresh weight survival rate (%) - E (Lolium multiflorum Lamk; [3]): 1.6% | Measured fresh weight inhibition rate (%) (Lolium multiflorum Lamk; [4]): 100.0% | Measured fresh weight survival rate (%) - E (Lolium multiflorum Lamk; [4]): 0.0% | Measured fresh weight inhibition rate (%) (Lolium multiflorum Lamk; [5]): 100.0% | Measured fresh weight survival rate (%) - E (Lolium multiflorum Lamk; [5]): 0.0% | Measured fresh weight inhibition rate (%) (Lolium multiflorum Lamk; [6]): 100.0% | Measured fresh weight survival rate (%) - E (Lolium multiflorum Lamk; [6]): 0.0% | Measured fresh weight inhibition rate (%) (Lithospermum arvense; 31.25 g ai/ha): 47.8% | Measured fresh weight survival rate (%) - E (Lithospermum arvense; 31.25 g ai/ha): 52.2% | Measured fresh weight inhibition rate (%) (Lithospermum arvense; 62.5 g ai/ha): 97.1% | Measured fresh weight survival rate (%) - E (Lithospermum arvense; 62.5 g ai/ha): 2.9% | Measured fresh weight inhibition rate (%) (Lithospermum arvense; 125 g ai/ha): 98.6% | Measured fresh weight survival rate (%) - E (Lithospermum arvense; 125 g ai/ha): 1.4% | Measured fresh weight inhibition rate (%) (Lithospermum arvense; 250 g ai/ha): 100.0% | Measured fresh weight survival rate (%) - E (Lithospermum arvense; 250 g ai/ha): 0.0% | Measured fresh weight inhibition rate (%) (Lithospermum arvense; 500 g ai/ha): 100.0% | Measured fresh weight survival rate (%) - E (Lithospermum arvense; 500 g ai/ha): 0.0%
